Test results: ChEMBL document CHEMBL1201862, “PubChem BioAssay data set” (2004)
Activity calls are given as the source filed them.

Legend:
[1] = target: Disintegrin and metalloproteinase domain-containing protein 17 (Homo sapiens, UniProt P78536); experiment: exosite inhibitors of ADAM17, dose response, biochemical (AID 743260)
[2] = target: T1, Corticotropin-releasing factor receptor 2/Corticotropin-releasing factor-binding protein (Homo sapiens, UniProt P24387+Q13324); experiment: activators of CRF receptor 2 with binding protein – uHTS hits, confirmation (AID 602473); assay type: functional; settings: read-out: EC50_Mean
T1 sequence (Q13324 whole entry): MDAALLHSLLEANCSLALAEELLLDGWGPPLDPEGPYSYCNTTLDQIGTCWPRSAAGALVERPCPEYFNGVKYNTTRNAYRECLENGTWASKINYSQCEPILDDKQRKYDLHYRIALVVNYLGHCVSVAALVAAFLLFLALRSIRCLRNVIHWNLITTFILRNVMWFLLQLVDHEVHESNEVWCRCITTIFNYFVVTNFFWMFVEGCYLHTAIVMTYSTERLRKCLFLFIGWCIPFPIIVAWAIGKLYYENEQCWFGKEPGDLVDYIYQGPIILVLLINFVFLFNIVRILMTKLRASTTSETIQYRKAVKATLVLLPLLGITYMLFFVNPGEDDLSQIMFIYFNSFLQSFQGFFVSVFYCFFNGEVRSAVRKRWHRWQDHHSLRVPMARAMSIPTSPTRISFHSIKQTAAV
T1 sequence (P24387 whole entry): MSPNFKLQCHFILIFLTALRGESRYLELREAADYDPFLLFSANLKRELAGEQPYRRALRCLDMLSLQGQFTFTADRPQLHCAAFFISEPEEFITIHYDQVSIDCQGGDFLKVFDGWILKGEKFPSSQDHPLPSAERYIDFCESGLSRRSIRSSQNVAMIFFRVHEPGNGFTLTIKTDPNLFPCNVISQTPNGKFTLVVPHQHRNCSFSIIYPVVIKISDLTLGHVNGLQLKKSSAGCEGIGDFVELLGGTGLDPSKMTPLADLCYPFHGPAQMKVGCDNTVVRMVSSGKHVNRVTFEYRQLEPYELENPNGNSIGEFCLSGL

[3] = ADAM10 protease inhibitors, dose response, selectivity assay for ADAM17 exosite inhibitor project, biochemical, FRET peptide substrate, recombinant human ADAM10 (AID 743259);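 note: ADAM10 enzyme cleaving a FRET peptide substrate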
[4] = target: T1, Corticotropin-releasing factor receptor 2/Corticotropin-releasing factor-binding protein; experiment: Dose Response confirmation of uHTS hits for small molecule antagonists of the CRF-binding protein and CRF-R2 receptor complex.; assay type: functional; settings: read-out: IC50_Mean
[5] = HEK293T cytotoxicity, dose response, cytotoxicity control for miR-122 modulator project, cell-based, inhibitor set, cherry-pick, set 2 (AID 720697); assay type: functional
[6] = miR-122 activators in hepatoma reporter cells, dose response, cell-based, Huh7 psiCHECK-miR122, Renilla luciferase, cherry-picked (AID 651956); assay type: functional;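 note: huh7 hepatoma cells stably carrying a psiCHECK-2 miR-122 sensor plasmid; renilla luciferase signal reporting endogenous miR-122 activity after 48 h compound exposure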
[7] = HeLa cell cytotoxicity, dose response, cytotoxicity control, 24 h, plate reader, dry powder (AID 686928); assay type: functional, cell-based
[8] = target: T2, Streptokinase A (Streptococcus pyogenes serotype M1, UniProt P10520); experiment: S. pyogenes streptokinase expression inhibitors, potency, dose response, plasminogen activation absorbance, OD405 (AID 1914); assay type: functional, Streptococcus pyogenes M1 GAS;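 note: secreted streptokinase activity via plasminogen activation per viability signal from cell pellet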
T2 sequence (P10520 whole entry): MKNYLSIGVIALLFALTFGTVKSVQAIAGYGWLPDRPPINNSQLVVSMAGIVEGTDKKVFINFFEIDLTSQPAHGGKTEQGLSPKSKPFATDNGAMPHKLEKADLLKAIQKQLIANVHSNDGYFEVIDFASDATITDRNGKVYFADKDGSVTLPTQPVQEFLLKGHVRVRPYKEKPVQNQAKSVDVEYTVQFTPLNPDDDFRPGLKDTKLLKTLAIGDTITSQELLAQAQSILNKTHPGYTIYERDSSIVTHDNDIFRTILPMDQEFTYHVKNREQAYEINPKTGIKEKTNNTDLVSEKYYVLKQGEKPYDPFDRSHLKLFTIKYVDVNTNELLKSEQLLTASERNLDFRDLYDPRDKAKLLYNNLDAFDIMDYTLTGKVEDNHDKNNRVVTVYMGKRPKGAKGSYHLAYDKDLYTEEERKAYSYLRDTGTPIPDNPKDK

[9] = test system: Streptococcus; experiment: Group A Streptococcus viability loss, dose response, counter-screen for streptokinase expression inhibitor project, luminescence, BacTiterGlo (AID 1915); assay type: functional, organism-based;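 note: potency for reduction of bacterial viability or growth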
[10] = test system: HEK293; experiment: inhibitors of LMP1-driven NF-kB reporter, dose response, cell-based, HEK293, luciferase, cherry-pick (AID 588343); assay type: functional; settings: Homo sapiens
[11] = test system: INS1; experiment: beta cell apoptosis inhibitors, cytokine rescue, dose response, luminescence, retest (AID 449756); assay type: functional, cell-based; settings: Rattus norvegicus;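 note: cell death triggered by IL-1 beta plus TNF-alpha plus IFN-gamma mixture; protective hits raise ATP signal compared with cytokine alone wells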
[12] = target: fMet-Leu-Phe receptor (Homo sapiens, UniProt P21462); experiment: FPR ligands, dose response (AID 519); assay type: functional
Chain of fMet-Leu-Phe receptor (P21462 whole entry): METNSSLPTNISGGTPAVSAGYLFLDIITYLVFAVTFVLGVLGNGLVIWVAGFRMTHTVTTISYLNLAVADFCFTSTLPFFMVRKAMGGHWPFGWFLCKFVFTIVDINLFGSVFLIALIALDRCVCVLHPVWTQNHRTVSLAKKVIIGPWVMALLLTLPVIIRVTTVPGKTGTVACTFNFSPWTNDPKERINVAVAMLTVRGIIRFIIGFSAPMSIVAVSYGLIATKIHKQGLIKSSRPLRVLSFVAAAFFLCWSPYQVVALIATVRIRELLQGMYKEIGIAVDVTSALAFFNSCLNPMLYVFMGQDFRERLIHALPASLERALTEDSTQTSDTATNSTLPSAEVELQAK

[13] = test system: Streptococcus sp. 'group A'; experiment: growth inhibition of control SK(-) GAS strain, dose response, counter-screen for streptokinase expression inhibitor project, luminescence, kanamycin, BacTiterGlo, confirmation (AID 1900); assay type: functional, organism-based
[14] = inhibitors of SNCA 5'UTR-driven reporter translation, confirmation, H4 neuroglioma cells, luminescence (AID 1988); assay type: functional, cell-based
[15] = Luminescence Cell-Based Dose Response HTS to Identify Inhibitors of 5'UTR Stem-Loop Driven Prion Protein mRNA Translation in H4 Neuroglioblastoma Cells. [Related pubchem assays: 1827 (Project Summary), 1813 (Primary HTS)]; assay type: functional
[16] = inhibitors of firefly luciferase expression or activity, dose response, H4 neuroglioma cells, luminescence (AID 1990); assay type: functional, cell-based

Chain of Disintegrin and metalloproteinase domain-containing protein 17 (P78536 whole entry, the tested form may be a part): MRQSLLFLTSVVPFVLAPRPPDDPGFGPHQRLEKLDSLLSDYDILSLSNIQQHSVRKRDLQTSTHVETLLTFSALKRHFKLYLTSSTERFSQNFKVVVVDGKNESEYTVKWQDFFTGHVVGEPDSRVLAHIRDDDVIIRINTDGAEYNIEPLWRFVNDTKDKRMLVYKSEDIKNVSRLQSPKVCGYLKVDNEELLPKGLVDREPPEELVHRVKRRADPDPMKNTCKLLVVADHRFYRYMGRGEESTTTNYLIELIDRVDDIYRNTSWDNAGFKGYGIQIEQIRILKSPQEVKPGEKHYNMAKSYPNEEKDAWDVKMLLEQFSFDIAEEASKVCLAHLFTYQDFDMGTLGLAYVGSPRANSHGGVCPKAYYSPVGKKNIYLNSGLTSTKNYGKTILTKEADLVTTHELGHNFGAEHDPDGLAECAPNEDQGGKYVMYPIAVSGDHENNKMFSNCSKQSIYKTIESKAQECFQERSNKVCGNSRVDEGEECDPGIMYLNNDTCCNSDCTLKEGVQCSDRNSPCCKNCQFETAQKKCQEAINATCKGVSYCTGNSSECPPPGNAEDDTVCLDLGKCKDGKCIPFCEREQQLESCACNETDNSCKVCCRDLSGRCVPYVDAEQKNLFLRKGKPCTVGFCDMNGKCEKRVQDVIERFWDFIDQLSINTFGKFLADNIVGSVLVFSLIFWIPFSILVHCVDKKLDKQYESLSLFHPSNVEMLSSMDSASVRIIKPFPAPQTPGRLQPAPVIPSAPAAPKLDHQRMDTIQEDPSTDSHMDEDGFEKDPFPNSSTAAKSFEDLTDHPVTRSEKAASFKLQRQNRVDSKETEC

Cc1cc2oc(=O)cc(-c3ccccc3)c2c(C)c1-c1ccc(O)cc1
IC50 [1]: > 69.5 µM (inactive) | EC50 [2]: > 53 µM (inactive) | IC50 [3]: > 69.5 µM (inactive) | IC50 [4]: > 47.1 µM (inactive)

CC(=O)N(C)C[C@H]1Oc2cc(/C=C/c3ccccc3)ccc2S(=O)(=O)N([C@@H](C)CO)C[C@H]1C
AC50 [5]: 0.451 µM (active) | AC50 [6]: 26.9 µM (active)

Cc1ccc2cc3c(NC(=O)c4ccco4)nn(C)c3nc2c1
AC50 [7]: 179 µM (active) | AC50 ([7]; 24 h): 121 µM (active)

Oc1c2c(nc3c(-c4ccc(Cl)cc4)cnn13)CCCC2
EC50 [8]: > 150 µM (not active) | EC50 [9]: 9.5 µM (active) | AC50 [10]: 2.89 µM (active) | AC50 [11]: 2.37 µM (active) | Ki [12]: > 66.7 µM (inactive) | EC50 [13]: 3.64 µM (active)

CCNC(=S)N/N=C/c1cn(Cc2ccccc2F)c2ccccc12
EC50 [14]: 19.7 µM (active) | IC50 [1]: > 69.5 µM (inactive) | EC50 [15]: 24.4 µM (active) | IC50 [3]: > 69.5 µM (inactive) | EC50 [16]: 15.9 µM (active)
